# Tested on: Normal human dermal fibroblasts
# Assay: Collagen-increasing activity, ELISA for collagen type 1 or procollagen type 1
# Format: cell-based
# Conditions: 5 ng/ml, positive control, 4 days incubation
# Method: Normal human dermal fibroblasts are seeded and grown to confluence in a 96-well plate prior to being treated with M. pudica extract or fractions thereof, prepared by solvent/solvent extractions (heptane/70% ethanol, ethyl acetate/water) at various concentrations in complete medium. Media alone serves as negative control and TGF-β serves as positive control. The plates are incubated for 4 days at 37° C./5% CO2 before the supernatants are harvested and stored at -70° C. until an ELISA is performed. Antibodies to collagen type 1 or procollagen type 1 are used for ELISA analysis to determine collagen levels.
substance,measurement,value
TGF-β,increase in collagen levels,46%
